Data on three compounds can be found in patent publication US6767708B1, “Stabilized aqueous steroid immunoassay standards” (Abbott Laboratories, priority 1994, dated 2004).

The data set is described as follows: Stability of progesterone in charcoal stripped human serum stressed at 37° C. (percent loss by IMx Progesterone immunoassay). It counts as physicochemical. Particulars: for Reduction in % loss of progesterone over time by addition of chelator compared to no added reagent: days 0, 3, 8, 15 and 29, FIG. 1; for Percent loss of progesterone: 5 ng/mL progesterone in charcoal stripped human serum, after 29 days, relative to frozen aliquot.

Protocol: Fifteen microliters (15 μL) of a serum sample were mixed with 80 μL of progesterone sample buffer, 80 μL of an anti-progesterone antibody coated microparticle suspension and 75 μL of IMx® Buffer. The reaction mixture was incubated for 20.8 minutes at 37° C. Progesterone sample buffer was an aqueous pH 2.8 solution of 2.25 M glycine, 0.5 μg/mL of 5-∝-dihydrotestosterone, 0.2% (w/v) saponin, 0.1 M sodium chloride and 0.1% methyl isothiazolinone (available from Rohm and Haas, Philadelphia, Pa.). The anti-progesterone antibody (available from University of Surry, Australia) coated microparticle suspension contained 0.001% solids (microparticles available from Seradyne, Indianapolis, Ind.) suspended in a buffer that was a pH 6.5 aqueous solution of 0.5 M morpholinoethanesulphonic acid (MES), 0.1 M sodium chloride, 10% sucrose, 2% bovine serum albumin (available from Intergen, Hawthorne, N.Y.), 0.1 mg/mL sheep IgG (50% ammonium sulfate cut of sheep serum obtained from Irvine Scientific, Santa Ana, Calif.) and 0.2% sodium azide.
One hundred seventy five microliters (175 μL) of the reaction mixture were transferred to the fiber matrix of an IMx® disposable cartridge. The microparticles were then washed with IMx® Buffer. Sixty microliters (60 μL) of 17-hydroxyprogesterone-3-(O-carboxymethyl)oxime alkaline phosphatase conjugate solution were added to the matrix, the reaction was incubated for 8 seconds at 37° C., and then washed again with IMx® Buffer. The conjugate solution contained 17-hydroxyprogesterone (available from Steraloids, Wilton, N.H.) coupled to alkaline phosphatase (available from Boehringer Mannheim, Germany) by means of the EDAC coupling procedure as described in U.S. Pat. No. 5,342,760. The conjugate solution was a pH 7.4 aqueous solution of 50 mM tris, 100 mM sodium chloride, 10 mM magnesium chloride, 0.1 mM zinc chloride, 0.5% casein (available from Sigma Chemical, St. Louis, Mo.) and 0.1% sodium azide containing sufficient conjugate to give a certain signal strength when utilized in an assay of sample free of analyte.
The addition of 4-methylumbelliferone phosphate and quantification of the rate of 4 methylumbelliferone formation was as described in Example 1. Using calibrators containing 0, 1, 4, 10, 20, and 40ng/mL of progesterone a standard curve was constructed.
Test samples were incubated at 37° C. and observed over a period of days or weeks.
Charcoal stripped human serum as prepared in Example 3 (non-alkaline shocked) (10 mL) was aliquoted into glass scintillation vials and various metal chelators were added to the following final concentrations:
Samples were incubated on a rocker for 12 min. at room temperature and then spiked to 5 ng/mL with 10 μg/mL progesterone (available from Sigma Chemical, Saint Louis, Mo.) prepared in an ethanol stock solution. Samples were assayed for baseline concentrations of progesterone following an 8 min. incubation on a rocker at room temperature. Four 1.0 mL aliquots of each composition were placed in TDx® microcentrifuge tubes (available from Abbott Laboratories, Abbott Park, Ill.) and stored frozen −20° C. The scintillation vials were incubated at 37° C. On the days indicated, aliquots were thawed and tested with the corresponding aliquots drawn from the vials stored at 37° C. to assess percent loss.
Percent loss (% loss) is an absolute determination of the loss of progesterone in the stressed sample relative to the frozen aliquot. […]

Take `O=C(O)CN(CCN(CC(=O)O)CC(=O)O)CCN(CC(=O)O)CC(=O)O` [DETP, diethylenetriaminepentaacetic acid]: the “Reduction in % loss of progesterone (ranking of chelators)” value (10 mM DETP, charcoal stripped human serum) is “most effective”. Moreover, under “charcoal stripped human serum”, the “Reduction in % loss of progesterone over time by addition of chelator compared to no added reagent” value is listed as “reduction in % loss”.
On to `O=C(O)CN(CCN(CC(=O)O)CC(=O)O)CC(=O)O` [EDTA, ethylenediaminetetraacetic acid], for which, where the note is “charcoal stripped human serum”, the “Reduction in % loss of progesterone over time by addition of chelator compared to no added reagent” value is listed as “reduction in % loss”.
For `CC(=O)[C@H]1CC[C@H]2[C@@H]3CCC4=CC(=O)CC[C@]4(C)[C@H]3CC[C@]12C` [progesterone], the “Percent loss of progesterone” value is, setting by setting: (10 mM DETP) “eliminated”; (no reagent added) about 80%.
